Data set [1] has as its system C3H/10T1/2 cells. Put plainly: Adipocyte differentiation inhibitory ability (Oil Red O staining). It counts as cell-based, mouse. Conditions: C3H/10T1/2, 10 μg/ml. Here is the method:
C3H/10T1/2 cells, which are mouse mesenchymal progenitor cells purchased from ATCC, were diluted in DMEM (Dulbecco's Modified Eagle Medium) medium containing 5.958 g/L HEPES, 3.7 g/L sodium bicarbonate and 10% FBS (fetal bovine serum), and cultured in 24-well culture plates at a density of 4×10^4 cells/well, in the presence of 5% CO2 at 37° C. for 2 days. When the cultured cells were grown to 90˜100% confluency in the culture plates, the cells were cultured in DMEM medium containing 10% FBS, to which 5μ/ml insulin, 1 μM dexamethason, and 5 μM troglitazone were added, in the presence of 5% CO2 at 37° C. for 8 days, to induce differentiation into adipocyte. The medium was exchanged every other day during differentiation. The C3H/10T1/2 cell line, in which differentiation into the adipocyte was induced, was fixed with 3.7% formaldehyde at room temperature for 30 minutes. An oil Red O solution dissolved in isopropanol at a concentration of 0.5% was diluted in distilled water at a ratio of 6:4, filtered through a 0.2 μm filter, and poured to the fixed cell line, which was stained for 1 hour. In order to observe only the cells differentiated into the adiopocyte, the dye solution was removed and the cells were washed with distilled water two times.
116V specimen extracted from sponge was dissolved in DMSO solvent, and allowed to treat C3H/10T1/2 cell lines, which are mouse mesenchymal progenitor cells, at concentrations of 1, 2.5, 5, 10, and 20 μg/ml. […] Then, after specimens of the compound 1 (1163), the compound 2 (1162), the compound 3 (1161), and the compound 4 (1164), which were purely separated from the 116V and 116VI species were obtained, the same experiment was performed. […] Remarkable cytotoxicity was not observed in each of the specimens during differentiation of adipocytes (FIG. 8).

The nature of data set [2]: Solubility in organic solvents. Format: physicochemical.
For data set [3], the system named is C3H/10T1/2 cells. The experiment in a line: Osteoblast formation activity (calcium deposition assay, Alizarin Red S). The note with it: for osteoblast differentiation ability: C3H/10T1/2, calcium deposition; for concentration of maximum osteoblast differentiation activity: C3H/10T1/2, tested 1-20 ug/ml; for concentration at which cytotoxicity was observed: C3H/10T1/2 during osteoblast differentiation. Format: cell-based, mouse. Here is the method: C3H/10T1/2 cells, which are mouse mesenchymal progenitor cells purchased from ATCC, were diluted in DMEM (Dulbecco's Modified Eagle Medium) medium containing 5.958 g/L HEPES, 3.7 g/L sodium bicarbonate, and 10% FBS (fetal bovine serum), and cultured in 24-well culture plates at a density of 4×10^4 cells/well, in the presence of 5% CO2 at 37° C. for 2 days. The cultured cells were grown to 90˜100% confluency in the culture plates, the cells were cultured in DMEM medium containing 10% FBS, to which 10 mM of β-glycerophosphate and 50μ/ml of ascorbic acid were added, in the presence of 5% CO2 at 37° C. for 6 days, to induce differentiation into osteoblast. The medium was exchanged every other day during differentiation. The C3H/10T1/2 cell line, in which differentiation into the osteoblast was induced, was washed with PBS (Phosphate Buffered Saline) once, and fixed with 70% ethanol at 20° C. for 1 hour. The cells after fixing were washed with cold PBS three times, and stained with 40 mM Alizarin Red S dye solution at room temperature for 20 minutes. The dye solution was removed and the cells were washed with distilled water three times in order to selectively observe only the cells differentiated into the osteoblast.
An aliquot 116V and an aliquot 116VI extracted and partitioned from sponges are dissolved in a DMSO solvent, and used to treat the C3H/10T1/2 cell line, mesenchymal progenitor cells, at concentrations of 1, 2.5, 5, 10, and 20 ug/ml. […] Since then, the same experiment was performed on the compound (1163), the compound 2 (1162), the compound 3 (1161), and the compound 4 (1164), which were purely separated from the aliquots 116V and 116VI, and as a result, it could be confirmed that the osteoblast differentiation ability was increased in the compounds 1, 3, and 4. […] To study a mechanism with respect to osteoblast differentiation ability, the C3H/10T1/2 cell lines were treated with the compound 1 and the compound 4 for 6 days, respectively. […] Also, the C3H/10T1/2 cell lines were treated with the compound 1 and the compound 4 for 6 days, respectively. […] Furthermore, it could be ascertained that combining of Runx2 and TAZ proteins was increased by treatment of the compounds and thus the activity of Runx2-meditated transcription was increased. The compound 5, which is an ester derivative of the compound 1 (1163), was synthesized in order to prepare a material having more excellent bioactivity, and the structure of the compound 5 obtained thus was determined. […] Therefore, the compounds of the present invention and derivatives thereof are expected to promote the differentiation of the osteoblast and thus play an innovative role in treatment of osteoporosis.

A further data set concerns Runx2, Osteocalcin, Msx2. Put plainly: Real time PCR of osteoblast differentiation mark factors. It counts as cell-based, mouse. Conditions: C3H/10T1/2 treated for 6 days, RTPCR. The procedure: (§1) An aliquot 116V and an aliquot 116VI extracted and partitioned from sponges are dissolved in a DMSO solvent, and used to treat the C3H/10T1/2 cell line, mesenchymal progenitor cells, at concentrations of 1, 2.5, 5, 10, and 20 ug/ml. […] Since then, the same experiment was performed on the compound (1163), the compound 2 (1162), the compound 3 (1161), and the compound 4 (1164), which were purely separated from the aliquots 116V and 116VI, and as a result, it could be confirmed that the osteoblast differentiation ability was increased in the compounds 1, 3, and 4. […] To study a mechanism with respect to osteoblast differentiation ability, the C3H/10T1/2 cell lines were treated with the compound 1 and the compound 4 for 6 days, respectively. […] Also, the C3H/10T1/2 cell lines were treated with the compound 1 and the compound 4 for 6 days, respectively. […] Furthermore, it could be ascertained that combining of Runx2 and TAZ proteins was increased by treatment of the compounds and thus the activity of Runx2-meditated transcription was increased. The compound 5, which is an ester derivative of the compound 1 (1163), was synthesized in order to prepare a material having more excellent bioactivity, and the structure of the compound 5 obtained thus was determined. […]
For orientation: In qPCR the cycle at which signal appears reflects the starting amount.

The subject of another data set is Runx2 and TAZ. The experiment in a line: Western blot of osteoblast differentiation mark factors. It counts as cell-based, mouse. The note with it: C3H/10T1/2 treated for 6 days. Here is the method:
as §1
For orientation: In western blotting, separated proteins are transferred to a membrane and probed.

The values below come from patent publication US8703813B2, “Compound with spiro chiral carbon backbone, preparation method thereof, and pharmaceutical composition containing the same” (SNU R & DB Foundation, priority 2008, dated 2014).

Some results are limits rather than exact numbers.

Turning to `CC(=O)OCC1=C[C@@]2(C=C(C)C[C@H](/C=C(\C)CCC=C(C)C)O2)O[C@H]2C=C(C)C(=O)C[C@@H]12` [Compound 2], the adipocyte differentiation ability entry in the data set on C3H/10T1/2 cells [1] is on record as “remarkably decreased”. In addition, the Solubility result in data set [2] is “Easily Dissolved in Organic Solvent of Acetone, Methanol, DMSO, etc”.
For `CC(=O)O[C@@H]1C[C@H]2C(CO)=C[C@@]3(C=C(C)C[C@H](/C=C(\C)CCC=C(C)C)O3)O[C@H]2C=C1C` [Compound 3], in the data set with C3H/10T1/2 cells [3], the osteoblast differentiation ability result is recorded as “increased”, the “concentration of maximum osteoblast differentiation activity” value worked out at 2.5 µg/mL and the “concentration at which cytotoxicity was observed” value is more than 2500 ng/mL. For the same compound, the adipocyte differentiation ability result in the data set with C3H/10T1/2 cells [1] was “remarkably decreased”. For the same compound, in data set [2], the Solubility result is on record as “Easily Dissolved in Organic Solvent of Acetone, Methanol, DMSO, etc”.
Turning to `C=C(C)C(O)CC/C(C)=C/[C@H]1CC(C)=C[C@@]2(C=C(CO)[C@@H]3CC(=O)C(C)=C[C@@H]3O2)O1` (some centres unmarked) [Compound 10], the Solubility entry in data set [2] is given as “Easily Dissolved in Organic Solvent of Acetone, Methanol, DMSO, etc”.
Regarding `CCCC(=O)OCC1=C[C@@]2(C=C(C)C[C@H](/C=C(\C)CCC=C(C)C)O2)O[C@H]2C=C(C)C(=O)C[C@@H]12` [Compound 5], in the data set on C3H/10T1/2 cells [3], the osteoblast differentiation ability entry was “promoted differentiation of the osteoblast in a similar degree as that of the compound 1”.
With `CC(=O)O[C@H]1C[C@H]2C(CO)=C[C@@]3(C=C(C)C[C@H](/C=C(\C)CCC=C(C)C)O3)O[C@H]2C=C1C` [Compound 4], in the data set on C3H/10T1/2 cells [3], the osteoblast differentiation ability entry is on record as “increased”, the “concentration of maximum osteoblast differentiation activity” value was found to be 5 µg/mL and the “concentration at which cytotoxicity was observed” value was more than 5000 ng/mL. Moreover, the “transcription degree of differentiation mark factors (Runx2, Osteocalcin, Msx2, etc.)” value in the data set with Runx2, Osteocalcin, Msx2 is given as “remarkably increased”. In addition, in the data set with Runx2 and TAZ, the “protein expression of Runx2 and TAZ” value is recorded as “increased”. Further, the adipocyte differentiation ability entry in the data set on C3H/10T1/2 cells [1] is on record as “remarkably decreased”. In addition, the Solubility result in data set [2] is recorded as “Easily Dissolved in Organic Solvent of Acetone, Methanol, DMSO, etc”.
Turning to `CC1=C[C@@]2(C=C(CO)[C@@H]3CC(=O)C(C)=C[C@@H]3O2)O[C@@H](/C=C(\C)C/C=C/C(C)(C)O)C1` [Compound 9], the Solubility result in data set [2] is “Easily Dissolved in Organic Solvent of Acetone, Methanol, DMSO, etc”.
